Measured values: patent publication US20070009571A1, “Novel haptotactic peptides” (Hadasit Medical Research Services & Development Ltd., priority 1998, published 2007)
No end group written: not given here.

Legend:
EC cells (BAEC) = assay: FACS analysis of binding of FITC-labeled peptides; format: cell-based, bovine; settings: 10 μg/ml or 100 μg/ml, medium with 0.1% albumin
Method: EC and HF cell monolayers were washed and then incubated with trypsin-versene. Cells were then washed with growth medium and resuspended in medium with 0.1% albumin. FITC-labeled peptide-Cβ (SEQ ID NO:1) was incubated with 5×10^5 EC cells (10 μg/ml or 100 μg/ml) or with 2.5×10^5 HF cells (100 μg/ml) in medium with 0.1% albumin. FITC-labeled peptide-CαE (SEQ ID NO:3) and Cα (SEQ ID NO:4) (10 μg/ml) was incubated with 5×10^5 EC cells in medium with 0.1% albumin. Cells were then washed with PBS and 1% albumin. Cells were resuspended in PBS and 1% albumin and then filtered through a mesh for FACS analysis, in which the FITC tluorescence was measured for each cell.
The control is without FITC-labeled peptide (background fluorescence).
In competition experiments, cells were incubated with various concentrations of unlabeled Cβ (SEQ ID NO:1) for 15 mins, an aliquot of Cβ^FITC (4 mM) was added and the sample was subjected to FACS analysis. […] The Cβ^FITC (SEQ ID NO:1) uptake experiments best fitted a linear-quadratic curve-fit.

human fibroblasts (HF) = assay: Uptake of FITC-peptides by fluorescence microscopy; format: cell-based; parameters: binding and internalization of dissolved FITC-peptide, fluorescent microscopy: dose or concentration left out as unconfirmed
Method: (§1) The cells examined were grown in 6-well plates on cover slips to reach near confluence. At the time of examination, the cover slips were inverted and put on a microscope slide supported by 2 thin spacers so that a thin gap (˜2 mm) was left between the cells on the coverslip and the slide. This was filled with culture medium. […] At different time points, medium was replaced with fresh medium and the fluorescence was viewed and photographed, using an Olympus fluorescent microscope system.
(§2) Accumulation of the FITC-peptide in the cytoplasm and around the nucleus was clearly observed. […] After a longer exposure of more than 1 hour or with fixed cells, accumulation of the FITC-peptide in the cytoplasm and around the nucleus was clearly observed (data not shown). In most cases, the fluorescence became concentrated in discrete cytoplasmic vesicles.

EC (BAEC) = assay: Uptake of FITC-peptides by fluorescence microscopy; format: cell-based, bovine; settings: 100 μg/ml, 30 min and 60 min
Method: as §1, §2

binding and internalization of dissolved FITC-peptide, fluorescent microscopy (human fibroblasts (HF); HF, 30 min and 60 min): binding and internalization
binding and internalization of dissolved FITC-peptide, fluorescent microscopy (EC (BAEC)): binding and internalization
Substance: FITC-CαE: FITC-labeled peptide CαE (SEQ ID NO:3) (RGADYSLRAVRMKIRPLVTQ; not fully specified (N-terminus); also: FITC label, position not given here)
binding/uptake of FITC-labeled peptide by FACS, in words (EC cells (BAEC)): taken up by cells
uptake of FITC-peptide by fluoro-microscopy (human fibroblasts (HF); 10 μM, human fibroblasts): uptake
